In patent EP0640088B1, “NOVEL TRICYCLIC THIAZOLO AND THIAZINO DERIVATIVES AND ANTI-VIRAL MEDICAMENTS CONTAINING THEM” (BOEHRINGER MANNHEIM GMBH, priority 1992, dated 1993):

The compounds below were run against T1, RT aus HIV-1 (Human immunodeficiency virus type 1 group M subtype B, UniProt P04585) (assay: Inhibition of reverse transcriptase (RT), screening test system measuring [3H]-thymidine-5'-triphosphate incorporation). Conditions: not given.
T1 construct: die gereinigte RT aus HIV-1; made in house; host or cells: E. coli
Assay type: biochemical
Text: Hemmung der Reversen Transkriptase (RT)
Das Screeningtestsystem beinhaltet die gereinigte RT aus HIV-1, die durch gentechnologische Methoden in E. coli exprimiert wurde, sowie die Komponenten des Initiationskomplexes, wie die in-vitro-Transkripte des HIV-LTR's mit der benachbarten Primer Binding Site als Template und einem zur Primer Binding Site komplementären 18mer Oligonukleotid als Primer. Gemessen wurde der [^3H]-Thymidin-5'-triphosphat-Einbau durch Auszählen im β-Counter.
O=C1Nc2ccccc2C2(c3ccccc3)SCCN12 (stereo not shown) [Beispiel 1 b, 10b-Phenyl-2,3,6,10-tetrahydro-5H-thiazolo[3,2-c]quinazolin-5-on] was tested, and the IC50 was 470 nM. Work on O=C1Nc2ccccc2C2(c3ccccc3)SCCCN12 (stereo not shown) [Beispiel 2, 11b-Phenyl-3,4,7,11b-tetrahydro-2H,6H-[1,3]thiazino[3,2-c]quinazolin-6-on] yielded an IC50 of 510 nM. With Cc1cccc(C23SCCN2C(=O)Nc2ccccc23)c1 (stereo not shown) [Beispiel 5 b, 10b-(3-Methylphenyl)-2,3,6,10b-tetrahydro-5H-thiazolo[3,2-c]quinazolin-5-on] the IC50 was 30 nM. In the case of Cc1cccc(C23SCCN2C(=O)Nc2ccccc23)n1 (stereo not shown) [Beispiel 5 f, 10b-(6-Methyl-2-pyridyl)-2,3,6,10b-tetrahydro-5H-thiazolo[3,2-c]quinazolin-5-on], the IC50 is reported as 200 nM. CN1C(=O)N2CCSC2(c2ccccc2)c2ccccc21 (stereo not shown) [Beispiel 6, 6-Methyl-10b-phenyl-2,3,6,10b-tetrahydro-5H-thiazolo [3,2-c]quinazolin-5-on] was tested, and the IC50 was 6200 nM. S=C1Nc2ccccc2C2(c3ccccc3)SCCN12 (stereo not shown) [Beispiel 7, 10b-Phenyl-2,3,6,10b-tetrahydro-5H-thiazolo[3,2-c]quinazolin-5-thion] showed an IC50 of 30 nM.

Same assay, conditions: purified recombinant RT from HIV-1 expressed in E. coli; HIV-LTR in-vitro transcript as template, 18mer oligonucleotide primer; [3H]-TTP incorporation, β-counter; read-out: Hemmung der HIV-RT IC50
Work on O=C1Nc2ccc(Cl)cc2C2(c3ccccc3)SCCN12 (stereo not shown) [Beispiel 4, 9-Chlor-10b-phenyl-2,3,6,10b-tetrahydro-5H-thiazolo[3,2-c]quinazolin-5-on] yielded an IC50 of 30 nM.
